Data from the supplement of paper PMC4858399.

What was measured:
Settings in all cases: exposure time 48 h
[1] = system: Caenorhabditis elegans N2; test: mean nematode size ln(EXT) after 48 h, plate-adjusted (DMSO control set to 6) (ln(EXT), control-adjusted); higher = larger nematodes / less growth inhibition
In short: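 Synchronised C. elegans N2 L1 larvae were grown for 48 h at 20°C in K-medium containing killed OP50, 1% DMSO and 0.5–200 µM chemical, at 50 per well and 4–6 wells per treatment. The Biosort recorded extinction for each worm, and a growth model removed debris. Worm size was obtained by natural-logging these values and averaging them per well. For plate adjustment, the vehicle control mean was subtracted and 6 was added.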

[2] = system: Caenorhabditis elegans N2; test: lowest effective concentration for larval growth inhibition (size below effect threshold); higher = less potent
In short: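 L1 larvae of C. elegans N2 (50 per 96-well) were grown in K-medium with killed bacteria and 1% DMSO, with the chemical at 0.5, 1, 5, 10, 50, 100 or 200 µM, for 48 h at 20°C. Per-worm extinction from the Biosort stood for size and was log-transformed into well means. For each chemical, the lowest effective concentration is the first dose where plate-adjusted mean size falls under the threshold and stays under it at the higher doses, using a threshold of 5.665.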

[3] = system: Caenorhabditis elegans N2; test: AC50 for larval growth inhibition (Hill fit); higher = less potent
In short: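 AC50 values come from a constrained Hill fit by weighted genetic-algorithm regression and are censored when out of range. The fit used only wells with at least 10 worms. Each well of a 96-well plate held 50 synchronised C. elegans N2 L1 larvae in K-medium with killed OP50, 1% DMSO and 0.5–200 µM chemical for 48 h at 20°C. A COPAS Biosort recorded each worm's size as extinction, which was log-transformed and averaged per well.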

SMILES | mean nematode size ln(EXT) (ln) ([1]; 0.5 µM) | mean nematode size ln(EXT) (ln) ([1]; 1 µM) | mean nematode size ln(EXT) (ln) ([1]; 5 µM) | mean nematode size ln(EXT) (ln) ([1]; 10 µM) | mean nematode size ln(EXT) (ln) ([1]; 50 µM) | mean nematode size ln(EXT) (ln) ([1]; 100 µM) | mean nematode size ln(EXT) (ln) ([1]; 200 µM) | lowest effective concentration [2] [µM] | AC50 for larval growth inhibition [3] [µM]
COc1nc(NC(C)C)nc(NC(C)C)n1 [Prometon] | 5.72 | 5.83 | 5.84 | 5.75 | 5.87 | 5.61 | 5.53 | 100 | > 200
CC#Cc1cc(C)nc(Nc2ccccc2)n1 [Mepanipyrim] | 5.81 | 5.81 | 5.8 | 5.84 | 5.7 | 5.75 | 5.21 | 200 | > 200
CCc1nn(C)c(C(=O)NCc2ccc(C(C)(C)C)cc2)c1Cl [Tebufenpyrad] | 4.96 | 5.23 | 3.83 | 3.7 | 3.95 | 4.11 | 3.36 | ≤ 0.5 | 1.03
COc1cc(Cl)c(OC)cc1Cl [Chloroneb] | 5.75 | 5.71 | 5.58 | 5.7 | 5.96 | 5.97 | 5.47 | 200 | > 200
CC(=O)OC/C=C(\C)CCC=C(C)C [Geranyl acetate] | 5.79 | 5.76 | 5.73 | 5.81 | 5.7 | 5.74 | 5.61 | 200 | > 200
CC(C)CCCCCCCOC(=O)CCCCC(=O)OCCCCCCCC(C)C [Diisodecyl adipate] | 5.86 | 5.91 | 5.83 | 5.89 | 5.89 | 5.89 | 5.53 | 200 | > 200
Cc1oc(-c2ccccc2)nc1CCOc1cccc2c1ccn2CCC(=O)O | 5.73 | 5.92 | 5.85 | 5.73 | 5.67 | 5.81 | 5.52 | 200 | > 200
C=CCC1=C(C)[C@@H](OC(=O)[C@@H]2[C@@H](C=C(C)C)C2(C)C)CC1=O [S-Bioallethrin] | 5.65 | 5.78 | 5.76 | 5.76 | 5.48 | 5.62 | 5.39 | 50 | > 200
CC/C(=C(/CC)c1ccc(O)cc1)c1ccc(O)cc1 [Diethylstilbestrol (DES)] | 6 | 6 | 5.97 | 5.96 | 5.99 | 5.73 | 5.61 | 200 | 87
CC(C)N(C(=O)COc1nnc(C(F)(F)F)s1)c1ccc(F)cc1 [Flufenacet] | 5.91 | 5.94 | 6.03 | 6.05 | 5.45 | 6.04 | 5.52 | 200 | 21.5
CN[C@H]1CC[C@@H](c2ccc(Cl)c(Cl)c2)c2ccc(S(N)(=O)=O)cc21 | 5.87 | 5.84 | 5.88 | 5.84 | 5.4 | 4.42 | 3.62 | 50 | 90.3
CN(C)C(=O)Nc1ccc(Cl)cc1 [Monuron] | 5.99 | 6 | 5.94 | 5.98 | 5.86 | 5.79 | 5.34 | 200 | > 200
CS(=O)(=O)c1cc(C(F)(F)F)ccc1C(=O)c1cnoc1C1CC1 [Isoxaflutole] | 6.11 | 6.29 | 6.22 | 6.31 | 6.07 | 6.15 | 5.61 | 200 | > 200
Nc1ccc(Nc2ccccc2)cc1 [N-Phenyl-1,4-benzenediamine] | 5.84 | 5.84 | 5.76 | 5.72 | 5.43 | 5.15 | 5.25 | 50 | 71.8
OCCC(F)(F)C(F)(F)C(F)(F)C(F)(F)C(F)(F)C(F)(F)F [1-Octanol, 3,3,4,4,5,5,6,6,7,7,8,8,8-tridecafluoro-] | 5.87 | 5.92 | 5.88 | 5.94 | 5.91 | 5.77 | 5.65 | 200 | > 200
CCOP(=S)(OCC)Oc1cc(C)nc(C(C)C)n1 [Diazinon] | 5.98 | 5.94 | 5.84 | 5.86 | 5.33 | 4.12 | 3.6 | 50 | 70.9
C1=CCCC=CCCC=CCC1 [1,5,9-Cyclododecatriene] | 5.89 | 5.9 | 5.9 | 5.83 | 5.92 | 5.86 | 5.34 | 200 | > 200
COc1ccc(C(=O)Nc2nc3ccccc3c(NCc3ccccc3)c2C#N)cc1 [N-[4-(benzylamino)-3-cyanoquinolin-2-yl]-4-methoxybenzamide] | 5.68 | 5.65 | 5.49 | 5.41 | 5.18 | 4.88 | 4.46 | 1 | > 200
CCCCCCCC1CCC(=O)O1 (stereo not drawn) [5-Heptyldihydro-2(3H)-furanone] | 5.94 | 5.81 | 5.79 | 5.79 | 5.76 | 5.87 | 4.09 | 200 | 182

SMILES | mean nematode size ln(EXT) (ln) ([1]; 0.5 µM) | mean nematode size ln(EXT) (ln) ([1]; 1 µM) | mean nematode size ln(EXT) (ln) ([1]; 5 µM) | mean nematode size ln(EXT) (ln) ([1]; 10 µM) | mean nematode size ln(EXT) (ln) ([1]; 50 µM) | mean nematode size ln(EXT) (ln) ([1]; 100 µM) | mean nematode size ln(EXT) (ln) ([1]; 200 µM) | lowest effective concentration [2] [µM] | AC50 for larval growth inhibition [3] [µM]
O=C(O)C(O)C(O)C(=O)O (stereo not drawn) [Tartaric acid] | 5.84 | 5.89 | 5.79 | 5.79 | 5.9 | 5.82 | 5.17 | 200 | > 200
CC(C)(C)c1cc(O)c(C(C)(C)C)cc1O [1,4-Benzenediol, 2,5-bis(1,1-dimethylethyl)-] | 5.85 | 5.93 | 5.73 | 5.79 | 5.7 | 4.85 | 3.48 | 100 | 113
COC(=O)c1c(C(F)F)nc(C(F)(F)F)c(C2=NCCS2)c1CC(C)C [Thiazopyr] | 6.05 | 5.89 | 6 | 5.98 | 4.8 | 4.4 | 3.61 | 50 | 73.2
CC(C)(C)c1ccccc1O [2-tert-Butylphenol] | 5.96 | 5.94 | 5.97 | 5.92 | 5.81 | 5.81 | 4.94 | 200 | > 200
Oc1ccc2c(c1)OC[C@@H](N1CCC(O)(c3ccc(F)cc3)CC1)[C@H]2O | 5.9 | 6.11 | 6.21 | 6.18 | 5.48 | 4.39 | 4.5 | 50 | 51.4
N#Cc1ccc(N(CC(N)=O)CC(F)(F)F)cc1C(F)(F)F | 5.89 | 5.86 | 5.91 | 6 | 5.95 | 5.91 | 5.47 | 200 | > 200
Cc1c2ccccc2c(C)c2c1ccc1ccccc12 [7,12-Dimethylbenz(a)anthracene] | 6.05 | 5.87 | 5.53 | 5.48 | 5.02 | 4.89 | 4 | 5 | 110
CC(C)(c1ccccc1)c1ccc(O)cc1 [4-Cumylphenol] | 6.04 | 5.96 | 5.97 | 5.84 | 5.92 | 5.3 | 4.34 | 100 | 110
O=C(Nc1ccccc1)Nc1cnns1 [Thidiazuron] | 6.05 | 6.18 | 6.1 | 5.93 | 6.01 | 5.89 | 4.8 | 200 | > 200
CCCN(CCC)c1c([N+](=O)[O-])cc(C(F)(F)F)c(N)c1[N+](=O)[O-] [Prodiamine] | 6.07 | 6.18 | 6.02 | 5.75 | 5.99 | 5.92 | 5.1 | 200 | > 200
Clc1cc(Cl)c2c(c1)N=C1CCCCCN1C2 | 5.91 | 5.88 | 5.72 | 5.8 | 5.67 | 5.54 | 4.82 | 100 | > 200
CC(C)Oc1cc(-n2nc(C(C)(C)C)oc2=O)c(Cl)cc1Cl [Oxadiazon] | 6.14 | 6.23 | 6.09 | 5.95 | 6.05 | 5.95 | 3.29 | 200 | 120
CCOP(=O)(NC(C)C)Oc1ccc(SC)c(C)c1 (stereo not drawn) [Fenamiphos] | 5.54 | 5.56 | 5.32 | 5.31 | 4.93 | 4.49 | 4.15 | ≤ 0.5 | 90.9
CC1(C)CC(N=C=O)CC(C)(CN=C=O)C1 (mixture of isomers) [Isophorone diisocyanate, mixture of isomers] | 5.94 | 5.89 | 5.97 | 5.71 | 5.76 | 5.37 | 4.55 | 100 | > 200
CCCCCCCCCC(=O)O [Decanoic acid] | 5.89 | 5.86 | 5.85 | 5.87 | 5.85 | 5.68 | 5.66 | 200 | > 200
CC(C)(C)C(=O)C(Oc1ccc(Cl)cc1)n1cncn1 (stereo not drawn) [Triadimefon] | 5.76 | 5.75 | 5.57 | 5.71 | 5.98 | 5.91 | 5.36 | 200 | > 200
COC(=O)C=C(C)OP(=O)(OC)OC [Mevinphos] | 6.16 | 6.21 | 6.22 | 6.29 | 4.99 | 5.74 | 3.88 | 200 | 156
Cc1ccccc1Cl [2-Chlorotoluene] | 6.08 | 6.06 | 5.92 | 6.02 | 5.98 | 6.04 | 3.3 | 200 | 178
